In ChEMBL document CHEMBL1201862, “PubChem BioAssay data set” (2004):
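Protocol summary: plate cells (96-well), add compound at 5 concentrations, incubate 48 h, interpolate endpoints linearly. GI50 = concentration required for 50% inhibition of growth.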 The source made the active and inactive calls. Cut-off read from the data, not from the text of the source: active = GI50 up to about 1.1 µM and inactive = higher.

How the values were obtained:
Assay in all cases: NCI tumour cell line growth inhibition, 48 h
[1] = tested on: A498
[2] = tested on: BT-549
[3] = tested on: CAKI-1
[4] = tested on: CCRF-CEM
[5] = tested on: COLO 205
[6] = tested on: DU-145
[7] = tested on: HCT-116
[8] = tested on: HCT-15
[9] = tested on: HOP-62
[10] = tested on: HOP-92
[11] = tested on: HT-29
[12] = tested on: Hs-578T
[13] = tested on: IGROV-1
[14] = tested on: KM12
[15] = tested on: LOX IMVI
[16] = tested on: M14
[17] = tested on: MCF7
[18] = tested on: MDA-MB-435
[19] = tested on: MDA-N
[20] = tested on: MOLT-4
[21] = tested on: Malme-3M
[22] = tested on: NCI-H226
[23] = tested on: NCI-H23
[24] = tested on: NCI-H460
[25] = tested on: NCI/ADR-RES
[26] = tested on: OVCAR-3
[27] = tested on: OVCAR-4
[28] = tested on: OVCAR-5
[29] = tested on: OVCAR-8
[30] = tested on: PC-3
[31] = tested on: RPMI-8226
[32] = tested on: RXF 393
[33] = tested on: SF-295
[34] = tested on: SK-MEL-28
[35] = tested on: SK-MEL-2
[36] = tested on: SK-MEL-5
[37] = tested on: SK-OV-3
[38] = tested on: SN12C
[39] = tested on: SNB-19
[40] = tested on: SNB-75
[41] = tested on: SR
[42] = tested on: SW-620
[43] = tested on: T47D
[44] = tested on: TK-10
[45] = tested on: U-251
[46] = tested on: UACC-257
[47] = tested on: UACC-62
[48] = tested on: UO-31
[49] = tested on: 786-0
[50] = tested on: A549
[51] = tested on: ACHN
[52] = tested on: EKVX
[53] = tested on: HCC 2998
[54] = tested on: K562
[55] = tested on: MDA-MB-231
[56] = tested on: SF-268

SMILES: Nc1nc(Cl)nc2c1ncn2C1CCC(CO)O1 (stereo unspecified)
- GI50 [1]: > 100 µM (inactive)
- GI50 [2]: > 100 µM (inactive)
- GI50 [3]: > 100 µM (inactive)
- GI50 [4]: 3.46 µM (inactive)
- GI50 [5]: > 100 µM (inactive)
- GI50 [6]: > 100 µM (inactive)
- GI50 [7]: > 100 µM (inactive)
- GI50 [8]: > 100 µM
- GI50 [9]: > 100 µM (inactive)
- GI50 [10]: > 100 µM (inactive)
- GI50 [11]: > 100 µM (inactive)
- GI50 [12]: > 100 µM (inactive)
- GI50 [13]: > 100 µM (inactive)
- GI50 [14]: > 100 µM (inactive)
- GI50 [15]: > 100 µM (inactive)
- GI50 [16]: > 100 µM (inactive)
- GI50 [17]: > 100 µM (inactive)
- GI50 [18]: > 100 µM (inactive)
- GI50 [19]: > 100 µM (inactive)
- GI50 [20]: 35.2 µM (inactive)
- GI50 [21]: > 100 µM (inactive)
- GI50 [22]: > 100 µM (inactive)
- GI50 [23]: 87.9 µM (inactive)
- GI50 [24]: > 100 µM (inactive)
- GI50 [25]: 90.6 µM (inactive)
- GI50 [26]: > 100 µM (inactive)
- GI50 [27]: > 100 µM (inactive)
- GI50 [28]: > 100 µM (inactive)
- GI50 [29]: 41.6 µM (inactive)
- GI50 [30]: > 100 µM (inactive)
- GI50 [31]: > 100 µM (inactive)
- GI50 [32]: > 100 µM (inactive)
- GI50 [33]: > 100 µM (inactive)
- GI50 [34]: > 100 µM (inactive)
- GI50 [35]: > 100 µM (inactive)
- GI50 [36]: > 100 µM (inactive)
- GI50 [37]: > 100 µM (inactive)
- GI50 [38]: 95.7 µM (inactive)
- GI50 [39]: > 100 µM (inactive)
- GI50 [40]: > 100 µM (inactive)
- GI50 [41]: > 100 µM (inactive)
- GI50 [42]: > 100 µM (inactive)
- GI50 [43]: > 100 µM (inactive)
- GI50 [44]: > 100 µM (inactive)
- GI50 [45]: > 100 µM (inactive)
- GI50 [46]: > 100 µM (inactive)
- GI50 [47]: > 100 µM (inactive)
- GI50 [48]: > 100 µM (inactive)

SMILES: Cc1ccsc1/C=N/Nc1nc2ccccc2s1
- GI50 [49]: 12.3 µM (inactive)
- GI50 [1]: 2.35 µM (inactive)
- GI50 [50]: 16.3 µM (inactive)
- GI50 [51]: 14 µM (inactive)
- GI50 [2]: 71.3 µM (inactive)
- GI50 [3]: 15.5 µM (inactive)
- GI50 [4]: 15.4 µM (inactive)
- GI50 [5]: 35.2 µM (inactive)
- GI50 [6]: 26.8 µM (inactive)
- GI50 [52]: 19.3 µM (inactive)
- GI50 [53]: 63.2 µM (inactive)
- GI50 [7]: 11.2 µM (inactive)
- GI50 [8]: 50.5 µM
- GI50 [9]: 8.99 µM (inactive)
- GI50 [10]: 13.4 µM (inactive)
- GI50 [11]: 34.6 µM (inactive)
- GI50 [12]: 23.2 µM (inactive)
- GI50 [13]: 11 µM (inactive)
- GI50 [54]: 14.7 µM (inactive)
- GI50 [14]: 24.2 µM (inactive)
- GI50 [15]: 23.9 µM (inactive)
- GI50 [16]: 28.1 µM (inactive)
- GI50 [17]: 11.5 µM (inactive)
- GI50 [55]: 12.8 µM (inactive)
- GI50 [18]: 70.1 µM (inactive)
- GI50 [19]: 34.8 µM (inactive)
- GI50 [20]: 16.2 µM (inactive)
- GI50 [22]: 19.4 µM (inactive)
- GI50 [23]: 31.8 µM (inactive)
- GI50 [25]: 21.4 µM (inactive)
- GI50 [26]: 12.9 µM (inactive)
- GI50 [27]: 19.7 µM (inactive)
- GI50 [28]: 40.9 µM (inactive)
- GI50 [29]: 23 µM (inactive)
- GI50 [30]: 14.3 µM (inactive)
- GI50 [31]: 19.4 µM (inactive)
- GI50 [32]: 6.27 µM (inactive)
- GI50 [56]: 21.4 µM (inactive)
- GI50 [33]: 10.6 µM (inactive)
- GI50 [34]: 25.1 µM (inactive)
- GI50 [35]: 26.2 µM (inactive)
- GI50 [36]: 20.9 µM (inactive)
- GI50 [37]: 12.5 µM (inactive)
- GI50 [38]: 13.3 µM (inactive)
- GI50 [39]: 12.8 µM (inactive)
- GI50 [40]: 20.5 µM (inactive)
- GI50 [42]: 25 µM (inactive)
- GI50 [43]: 48.8 µM (inactive)
- GI50 [44]: 13.9 µM (inactive)
- GI50 [45]: 13.5 µM (inactive)
- GI50 [46]: 20.4 µM (inactive)
- GI50 [47]: 27.9 µM (inactive)
- GI50 [48]: 20.8 µM (inactive)
